Results published in PubChem BioAssay AID250 (DTP/NCI, 2004).
Inconclusive results and toxic doses are left out.

System: BDF1 mice, L1210 leukemia sc, survival T/C
Assay: NCI In Vivo Anticancer Drug Screen. Data for tumor model L1210 Leukemia (subcutaneous) in B6D2F1 (BDF1) mice
Conditions: higher = longer survival
Protocol: The antitumor activity of compounds was measured in mice bearing transplantable tumors. Survival or tumor size were measured and the results are expressed as the measurement made in the treated group (T) divided by the measurement made in the vehicle treated control group (C). The tumor model used in this assay is L1210 Leukemia (subcutaneous) in B6D2F1 (BDF1) mice

[1] = endpoint: median survival time, dose: 39.0 mg/kg/injection, schedule: Q01DX Z (sc), vehicle: carboxymethylcellulose (CMC)
[2] = endpoint: median survival time, dose: 65.0 mg/kg/injection, schedule: Q01DX Z (sc), vehicle: carboxymethylcellulose (CMC)

With `COc1cc(NS(C)(=O)=O)ccc1Nc1c2cccc(C)c2nc2c(C)cccc12` the T/C (endpoint: mean survival time, dose: 6.25 mg/kg/injection, schedule: Q01DX009 (ip), vehicle: Klucel (hydroxypropylcellulose) (HPC)) was 100 % of control, the T/C (endpoint: mean survival time, dose: 12.5 mg/kg/injection, schedule: Q01DX009 (ip), vehicle: Klucel (hydroxypropylcellulose) (HPC)) was 103 % of control and the T/C (endpoint: mean survival time, dose: 25.0 mg/kg/injection, schedule: Q01DX009 (ip), vehicle: Klucel (hydroxypropylcellulose) (HPC)) was 102 % of control. For the same compound, the T/C (endpoint: mean survival time, dose: 50.0 mg/kg/injection, schedule: Q01DX009 (ip), vehicle: Klucel (hydroxypropylcellulose) (HPC)) was 103 % of control.
With `OC(CBr)C(O)C(O)C(O)CBr` (stereo unspecified) the T/C (endpoint: median survival time, dose: 108.0 mg/kg/injection, schedule: Q01DX009 (ip), vehicle: steriod suspending solution) was 105 % of control, the T/C (endpoint: median survival time, dose: 108.0 mg/kg/injection, schedule: Q01DX009 (sc), vehicle: steriod suspending solution) was 100 % of control and the T/C (endpoint: median survival time, dose: 180.0 mg/kg/injection, schedule: Q01DX009 (ip), vehicle: steriod suspending solution) was 116 % of control. For the same compound, the T/C (endpoint: median survival time, dose: 180.0 mg/kg/injection, schedule: Q01DX009 (sc), vehicle: steriod suspending solution) was 111 % of control, the T/C (endpoint: median survival time, dose: 180.0 mg/kg/injection, schedule: Q04DX003 (ip), vehicle: steriod suspending solution) was 100 % of control and the T/C (endpoint: median survival time, dose: 180.0 mg/kg/injection, schedule: Q04DX003 (sc), vehicle: steriod suspending solution) was 105 % of control. The T/C (endpoint: median survival time, dose: 300.0 mg/kg/injection, schedule: Q01DX009 (ip), vehicle: steriod suspending solution) was 122 % of control, the T/C (endpoint: median survival time, dose: 300.0 mg/kg/injection, schedule: Q01DX009 (sc), vehicle: steriod suspending solution) was 116 % of control and the T/C (endpoint: median survival time, dose: 300.0 mg/kg/injection, schedule: Q04DX003 (ip), vehicle: steriod suspending solution) was 111 % of control. For the same compound, the T/C (endpoint: median survival time, dose: 300.0 mg/kg/injection, schedule: Q04DX003 (sc), vehicle: steriod suspending solution) was 111 % of control, the T/C (endpoint: median survival time, dose: 500.0 mg/kg/injection, schedule: Q01DX009 (sc), vehicle: steriod suspending solution) was 155 % of control and the T/C (endpoint: median survival time, dose: 500.0 mg/kg/injection, schedule: Q04DX003 (ip), vehicle: steriod suspending solution) was 100 % of control. The T/C (endpoint: median survival time, dose: 500.0 mg/kg/injection, schedule: Q04DX003 (sc), vehicle: steriod suspending solution) was 105 % of control, the T/C (endpoint: median survival time, dose: 833.0 mg/kg/injection, schedule: Q04DX003 (ip), vehicle: steriod suspending solution) was 122 % of control and the T/C (endpoint: median survival time, dose: 833.0 mg/kg/injection, schedule: Q04DX003 (sc), vehicle: steriod suspending solution) was 122 % of control. For the same compound, the T/C (endpoint: median survival time, dose: 1388.0 mg/kg/injection, schedule: Q01DX009 (sc), vehicle: other) was 111 % of control, the T/C (endpoint: median survival time, dose: 1388.0 mg/kg/injection, schedule: Q01DX009 (sc), vehicle: steriod suspending solution) was 110 % of control and the T/C (endpoint: median survival time, dose: 1388.0 mg/kg/injection, schedule: Q01DX015 (sc), vehicle: other) was 110 % of control. For the same compound, the T/C (endpoint: median survival time, dose: 1388.0 mg/kg/injection, schedule: Q01DX015 (sc), vehicle: steriod suspending solution) was 110 % of control.
In the case of `CC(=O)c1ccc(NC(=O)N(CCCl)N=O)cc1`, the T/C [1] is reported as 183 % of control and the T/C [2] is reported as 211 % of control.
With `ClCCN(CCCl)CCNc1ccnc2cc(Cl)ccc12` the T/C (endpoint: median survival time, dose: 1.08 mg/kg/injection, schedule: Q01DX Z (sc), vehicle: water) was 100 % of control, the T/C (endpoint: median survival time, dose: 8.4 mg/kg/injection, schedule: Q01DX Z (sc), vehicle: water) was 100 % of control and the T/C (endpoint: median survival time, dose: 23.0 mg/kg/injection, schedule: Q01DX Z (sc), vehicle: water) was 100 % of control. The T/C (endpoint: median survival time, dose: 39.0 mg/kg/injection, schedule: Q01DX Z (sc), vehicle: water) was 100 % of control and the T/C (endpoint: median survival time, dose: 65.0 mg/kg/injection, schedule: Q01DX Z (sc), vehicle: olive oil, sesame oil, peanut oil) was 100 % of control.
`COC(=O)[C@@H]1c2cc3c(c(O)c2[C@@H](OC2OC(C)C(OC)C(C)(OC)C2OC)C[C@]1(C)O)C(=O)c1c(O)cc2c(c1C3=O)O[C@H]1O[C@]2(C)[C@H](O)[C@@H](N(C)C)[C@@H]1O` (stereo partly specified) was tested, and the T/C (endpoint: median survival time, dose: 3.0 mg/kg/injection, schedule: Q01DX Z (sc), vehicle: saline) was 105 % of control, the T/C (endpoint: median survival time, dose: 5.0 mg/kg/injection, schedule: Q01DX Z (sc), vehicle: saline) was 100 % of control and the T/C (endpoint: median survival time, dose: 8.4 mg/kg/injection, schedule: Q01DX Z (sc), vehicle: saline) was 100 % of control. The T/C (endpoint: median survival time, dose: 14.0 mg/kg/injection, schedule: Q01DX Z (sc), vehicle: saline) was 90 % of control and the T/C (endpoint: median survival time, dose: 23.0 mg/kg/injection, schedule: Q01DX Z (sc), vehicle: saline) was 90 % of control.
In the case of `CCCC(=O)OCC1OC(n2cnc3c(=S)nc(N)[nH]c32)C(OC(=O)CCC)C1OC(=O)CCC` (stereo unspecified), the T/C (endpoint: median survival time, dose: 14.0 mg/kg/injection, schedule: Q01DX Z (sc), vehicle: carboxymethylcellulose (CMC)) is reported as 112 % of control, the T/C (endpoint: median survival time, dose: 23.0 mg/kg/injection, schedule: Q01DX Z (sc), vehicle: carboxymethylcellulose (CMC)) is reported as 100 % of control and the T/C [1] is reported as 112 % of control. The T/C [2] was 175 % of control, the T/C (endpoint: median survival time, dose: 108.0 mg/kg/injection, schedule: Q01DX Z (sc), vehicle: carboxymethylcellulose (CMC)) was 168 % of control and the T/C (endpoint: median survival time, dose: 180.0 mg/kg/injection, schedule: Q01DX Z (sc), vehicle: carboxymethylcellulose (CMC)) was 150 % of control.
